Assay results: patent US20260001876A1, “Compounds and Their Use as PDE4 Activators” (Mironid Limited, priority 2022, published 2026)

System: m-IMCD3 cells
Assay: Inhibition of PGE2-stimulated in vitro cyst formation in m-IMCD3 cells (3D culture)
Assay type: cell-based
Settings: Mus musculus, mIMCD3, 144 h; 3 μM; mean cyst area; 100% for (DMSO + PGE2) and 0% for DMSO control; 6 days of culture; read-out: % Cyst area* after incubation with 3 μM test compound
Experimental: HEK 293 and MDCK cells (Public Health England, Cell Culture Collections) were maintained in Dulbecco's Modified Eagle's Medium (DMEM) supplemented with 10% (v/v) fetal bovine serum (FBS) (Seralab), 2 mM L-glutamine and 100 U/mL penicillin streptomycin cocktail (ThermoFisher); termed complete media. Clonal HEK 293 cell lines were maintained in complete media supplemented with 0.6 mg/ml G418 (Enzo Life Sciences). Mouse inner medullary collecting duct (m-IMCD3) cells [American Type Culture Collection (ATCC)] were maintained in media consisting of DMEM/Hams F-12 50/50 Mix (DMEM F12; Corning) supplemented with penicillin streptomycin cocktail (100 U/mL) and FBS (10% v/v) (DMEM F12-10% FBS).
Experiment 3: Inhibition of In Vitro Cyst Formation in m-IMCD3 Cells Treated with PDE4 Long Form Activators
The mouse Inner Medullary Collecting Duct cell line (m-IMCD3) spontaneously forms cystic spheroids in 3D culture with a Type 1 collagen/Matrigel extracellular matrix. This process can be stimulated with agents which raise intracellular cAMP and is used as an in vitro model for the formation of cystic structures in the kidneys of patients with ADPKD.
Rat Collagen I (Fisher Scientific) is prepared on ice by neutralising with 1M NaOH and diluting with a 2× volume of DMEM/F12+10% FBS. This is mixed 1:1.1 with ice cold Matrigel (Corning) for coating plates (coating mix), and 1:0.93 with Matrigel for cell plating (plating mix).
The assay is conducted in the wells of a 96-well plate culture dish using a total volume of 130 μL of collagen/Matrigel/DMEM F12-10% FBS suspension in growth media for each matrix plug per individual well. Initially, 30 μL of collagen/Matrigel/DMEM F12-10% FBS (coating mix) is added into the well of a 96 well plate and the collagen is set to a gel by incubating at 37° C. for at least 15 minutes. A second layer of 100 μL collagen/Matrigel suspension (plating mix) containing m-IMCD3 cells (2.75×10^6 m-IMCD3 cells per 96-well plate) is layered over the coating mix and the collagen/Matrigel/cell mix again set to a gel by incubating at 37° C. Cell cultures are maintained at 37° C. in an atmosphere of 5% CO2, 95% air.
Between 18 and 24 h after plating, test compound(s) as DMSO stock solutions [0.1% (v/v) final DMSO concentration] and PGE2 (100 nM final concentration) in DMEM F12-10% FBS are added in quadruplicate wells per condition. Media, together with the test compound and PGE2 are replenished after 2 or 3 days. After 6 days of culture z stack images of the wells are captured using the Nikon Eclipse Ti2-E microscope. Nikon General Analysis software is used to measure the following parameters in each well: the mean cyst area, the number of cysts, and the total cyst area.
PDE4 long form activators inhibited in vitro cyst formation in m-IMCD3 cells. Data are shown in Table 4 as mean cyst area (%), compared to 100% for (DMSO+PGE2) and 0% for DMSO control.

Compound | activity at 3 µM [%]
O=C(c1ccccc1)N1CCc2nc(N3C4CCC3CNC4)ccc2C1 [Example 120, (2-(3,8-diazabicyclo[3.2.1]octan-8-yl)-7,8-dihydro-1,6-naphthyridin-6(5H)-yl)(phenyl)methanone] | 1
O=C(c1ccc(F)cc1)N1CCc2nc(N3C4CCC3CNC4)ccc2C1 [Example 123, (2-(3,8-diazabicyclo[3.2.1]octan-8-yl)-7,8-dihydro-1,6-naphthyridin-6(5H)-yl)(4-fluorophenyl)methanone] | -7
O=C([C@H](O)C1CCCC1)N1CCc2nc(N3C4CCC3CNC4)ccc2C1 [Example 124, (2R)-1-(2-(3,8-diazabicyclo[3.2.1]octan-8-yl)-7,8-dihydro-1,6-naphthyridin-6(5H)-yl)-2-cyclopentyl-2-hydroxyethan-1-one] | 0
O=C(OC1CCCC1)N1CCc2nc(N3C4CCC3CNC4)ccc2C1 [Example 125, cyclopentyl 2-(3,8-diazabicyclo[3.2.1]octan-8-yl)-7,8-dihydro-1,6-naphthyridine-6(5H)-carboxylate] | -3
CC(C)OC(=O)N1CCc2nc(N3C4CCC3CNC4)ccc2C1 [Example 126, isopropyl 2-(3,8-diazabicyclo[3.2.1]octan-8-yl)-7,8-dihydro-1,6-naphthyridine-6(5H)-carboxylate] | 14
O=C(OCc1ccccc1)N1CCc2nc(N3C4CCC3CNC4)ccc2C1 [Example 127, benzyl 2-(3,8-diazabicyclo[3.2.1]octan-8-yl)-7,8-dihydro-1,6-naphthyridine-6(5H)-carboxylate] | 3
CC(C)[C@H](C)C(=O)N1Cc2ccc(N3C4CCC3CNC4)nc2C1 [Example 128, (2S)-1-(2-(3,8-diazabicyclo[3.2.1]octan-8-yl)-5,7-dihydro-6H-pyrrolo[3,4-b]pyridin-6-yl)-2,3-dimethylbutan-1-one] | 3
O=C(Cc1ccccc1)N1CCc2nc(N3C4CCC3CNC4)ncc2C1 [Example 133, 1-(2-(3,8-diazabicyclo[3.2.1]octan-8-yl)-7,8-dihydropyrido[4,3-d]pyrimidin-6(5H)-yl)-2-phenylethan-1-one] | -5
O=C(Cc1ccccc1)N1CCc2nc(N3CC4CCC(C3)N4)ncc2C1 [Example 135, 1-(2-(3,8-diazabicyclo[3.2.1]octan-3-yl)-7,8-dihydropyrido[4,3-d]pyrimidin-6(5H)-yl)-2-phenylethan-1-one] | -5
N#Cc1ccc(CC(=O)N2CCc3nc(N4CCNCC4)ncc3C2)cc1 [Example 137, 4-(2-oxo-2-(2-(piperazin-1-yl)-7,8-dihydropyrido[4,3-d]pyrimidin-6(5H)-yl)ethyl)benzonitrile] | 13

Same assay, conditions: Mus musculus, mIMCD3, 144 h; 10 μM; mean cyst area; 100% for (DMSO + PGE2) and 0% for DMSO control; 6 days of culture; read-out: % Cyst area* after incubation with 10 μM test compound

Compound | activity at 10 µM [%]
O=C(CC1CCCC1)N1CCc2nc(N3CCN[C@@H](CO)C3)ccc2C1 (single isomer, unassigned) [Example 131] | -4
O=C(CC1CCCC1)N1CCc2nc(N3CCN[C@H](CO)C3)ccc2C1 (single isomer, unassigned) [Example 132] | -4
O=C(CC1CCCC1)N1CCc2nc(N3C4CCC3CNC4)ccc2C1 [Example 39, 1-(2-(3,8-diazabicyclo[3.2.1]octan-8-yl)-7,8-dihydro-1,6-naphthyridin-6(5H)-yl)-2-cyclopentylethan-1-one] | 5
O=C(COc1ccccc1)N1CCc2nc(N3C4CCC3CNC4)ccc2C1 [Example 41, 1-(2-(3,8-diazabicyclo[3.2.1]octan-8-yl)-7,8-dihydro-1,6-naphthyridin-6(5H)-yl)-2-phenoxyethan-1-one] | 4
CC(C)CC(=O)N1CCc2nc(N3C4CCC3CNC4)ccc2C1 [Example 43, 1-(2-(3,8-diazabicyclo[3.2.1]octan-8-yl)-7,8-dihydro-1,6-naphthyridin-6(5H)-yl)-3-methylbutan-1-one] | -4
CC(C)C(C)C(=O)N1CCc2nc(N3C4CCC3CNC4)ccc2C1 (centres unmarked) [Example 44, 1-(2-(3,8-diazabicyclo[3.2.1]octan-8-yl)-7,8-dihydro-1,6-naphthyridin-6(5H)-yl)-2,3-dimethylbutan-1-one] | -2
O=C(C1CCCC1)N1CCc2nc(N3C4CCC3CNC4)ccc2C1 [Example 47, (2-(3,8-diazabicyclo[3.2.1]octan-8-yl)-7,8-dihydro-1,6-naphthyridin-6(5H)-yl)(cyclopentyl)methanone] | 5
O=C(NC1CCC(F)(F)CC1)N1CCc2nc(N3C4CCC3CNC4)ccc2C1 [Example 59, 2-(3,8-diazabicyclo[3.2.1]octan-8-yl)-N-(4,4-difluorocyclohexyl)-7,8-dihydro-1,6-naphthyridine-6(5H)-carboxamide] | -4
O=C(N1CCCC1)N1CCc2nc(N3C4CCC3CNC4)ccc2C1 [Example 61, (2-(3,8-diazabicyclo[3.2.1]octan-8-yl)-7,8-dihydro-1,6-naphthyridin-6(5H)-yl)(pyrrolidin-1-yl)methanone] | 3
CN(C(=O)N1CCc2nc(N3C4CCC3CNC4)ccc2C1)C1CCCC1 [Example 63, 2-(3,8-diazabicyclo[3.2.1]octan-8-yl)-N-cyclopentyl-N-methyl-7,8-dihydro-1,6-naphthyridine-6(5H)-carboxamide] | 2
CCN(C(=O)N1CCc2nc(N3C4CCC3CNC4)ccc2C1)C1CCCC1 [Example 64, 2-(3,8-diazabicyclo[3.2.1]octan-8-yl)-N-cyclopentyl-N-ethyl-7,8-dihydro-1,6-naphthyridine-6(5H)-carboxamide] | 0
O=C(CC1CCC(F)(F)CC1)N1Cc2ccc(N3C4CCC3CNC4)nc2C1 [Example 87, 1-(2-(3,8-diazabicyclo[3.2.1]octan-8-yl)-5,7-dihydro-6H-pyrrolo[3,4-b]pyridin-6-yl)-2-(4,4-difluorocyclohexyl)ethan-1-one] | 0
O=C(NC1CCC(F)(F)CC1)N1Cc2ccc(N3C4CCC3CNC4)nc2C1 [Example 89, 2-(3,8-diazabicyclo[3.2.1]octan-8-yl)-N-(4,4-difluorocyclohexyl)-5,7-dihydro-6H-pyrrolo[3,4-b]pyridine-6-carboxamide] | 2
CN1CC2CCC(C1)N2c1ccc2c(n1)CN(C(=O)CC1CCC(F)(F)CC1)C2 [Example 93, 2-(4,4-difluorocyclohexyl)-1-(2-(3-methyl-3,8-diazabicyclo[3.2.1]octan-8-yl)-5,7-dihydro-6H-pyrrolo[3,4-b]pyridin-6-yl)ethan-1-one] | -3
O=C(N1CCCC1)N1Cc2ccc(N3C4CCC3CNC4)nc2C1 [Example 95, (2-(3,8-diazabicyclo[3.2.1]octan-8-yl)-5,7-dihydro-6H-pyrrolo[3,4-b]pyridin-6-yl)(pyrrolidin-1-yl)methanone] | -2
CCN(CC)C(=O)N1Cc2ccc(N3C4CCC3CNC4)nc2C1 [Example 96, 2-(3,8-diazabicyclo[3.2.1]octan-8-yl)-N,N-diethyl-5,7-dihydro-6H-pyrrolo[3,4-b]pyridine-6-carboxamide] | -4
CN1CC2CCC(C1)N2c1ccc2c(n1)CCN(C(=O)CC1CCC(F)(F)CC1)C2 [Example 106, 2-(4,4-difluorocyclohexyl)-1-(2-(3-methyl-3,8-diazabicyclo[3.2.1]octan-8-yl)-7,8-dihydro-1,6-naphthyridin-6(5H)-yl)ethan-1-one] | 1
CC1(CC(=O)N2CCc3nc(N4C5CCC4CNC5)ccc3C2)CCCC1 [Example 119, 1-(2-(3,8-diazabicyclo[3.2.1]octan-8-yl)-7,8-dihydro-1,6-naphthyridin-6(5H)-yl)-2-(1-methylcyclopentyl)ethan-1-one] | -4
O=C(N1Cc2ccc(N3C4CCC3CNC4)nc2C1)C(F)(F)c1ccccc1 [Example 130, 1-(2-(3,8-diazabicyclo[3.2.1]octan-8-yl)-5,7-dihydro-6H-pyrrolo[3,4-b]pyridin-6-yl)-2,2-difluoro-2-phenylethan-1-one] | -10
